Data as given in US20120010173A1 (SEPS PHARMA N.V., priority 2009, published 2012).

What was measured:
[1] = Chemical stability in pharmaceutical solvents (weight % remaining in solution, LCMS); type: physicochemical
Experimental: Table 4 provides the chemical stability data in some pharmaceutical solvents, expressed as the weight percentage (% w/w) of the final fosfluconazole derivative produced and characterized in example 1 that remained in solution after a certain period of time. The test was carried out twice, and the remaining weight % was determined by Liquid Chromatography-Mass Spectrometry (LCMS).
Table 5 provides the chemical stability data in some pharmaceutical solvents at 25° C., expressed as the weight percentage (% w/w) of the final fosfluconazole derivative produced and characterized in example 2 that remained in solution after a certain period of time. The test was carried out twice, and the remaining weight % was determined by Liquid Chromatography-Mass Spectrometry (LCMS).
Table 6 provides the chemical stability data in some pharmaceutical solvents at 25° C., expressed as the weight percentage (% w/w) of the final fosfluconazole derivative produced and characterized in example 3 that remained in solution after a certain period of time. The test was carried out twice, and the remaining weight % was determined by Liquid Chromatography-Mass Spectrometry (LCMS).
Table 7 provides the chemical stability data in some pharmaceutical solvents, expressed as the weight percentage (% w/w) of the final fosfluconazole derivative produced and characterized in example 4 that remained in solution after a certain period of time. The test was carried out twice, and the remaining weight % was determined by Liquid Chromatography-Mass Spectrometry (LCMS).
Table 8 provides the chemical stability data in some pharmaceutical solvents, expressed as the weight percentage (% w/w) of the final fosfluconazole derivative produced and characterized in example 5 that remained in solution after a certain period of time. The test was carried out twice, and the remaining weight % was determined by Liquid Chromatography-Mass Spectrometry (LCMS).
Table 9 provides the chemical stability data in some pharmaceutical solvents, expressed as the weight percentage (% w/w) of the final fosfluconazole derivative produced and characterized in example 6 that remained in solution after a certain period of time. The test was carried out twice, and the remaining weight % was determined by Liquid Chromatography-Mass Spectrometry (LCMS).
Table 10 provides the chemical stability data in some pharmaceutical solvents, expressed as the weight percentage (% w/w) of the final fosfluconazole derivative produced and characterized in example 14 that remained in solution after a certain period of time. The test was carried out twice, and the remaining weight % was determined by Liquid Chromatography-Mass Spectrometry (LCMS).

[2] = Solubility of fosfluconazole derivatives in pharmaceutical solvents (Table 2); type: physicochemical; conditions: thermodynamic from solid
Experimental: The solubility determination method used was as follows: a suspension of 6 mg of the tested fosfluconazole derivative in 500 μl of the applicable pharmaceutical solvent was rotatively shaken for 24 hours at 800 rpm at 25° C. The saturated fosfluconazole derivative solution was filtered (0.45 μm) and 150 μl of the filtrate was diluted in dimethylsulfoxide (50 μl DMSO). This solution was assayed, each assay being carried out in three-fold, by measurement with Liquid Chromatography-Mass Spectrometry (LCMS, 1 μl and 10 μl injection). Standards were prepared by dissolving the corresponding fosfluconazole derivative in DMSO (1 mg/ml). To determine the solubility, four aliquots (0.5, 1, 2, 4 μl) of the standard solution were injected using the same LCMS conditions as for the above exemplary samples.

[3] = H2O/Kleptose HPB (60/40), 4 hours
[4] = H2O/Kleptose HPB (60/40), 1 day
[5] = H2O/Kleptose HPB (60/40), 2 days
[6] = H2O/Kleptose HPB (60/40), 7 days
[7] = H2O/Kleptose HPB (60/40), 14 days
[8] = aqueous with cosolvent or surfactant or cyclodextrin, H2O/Cremophor RH 40 (80/20), 25° C.
[9] = aqueous with cosolvent or surfactant or cyclodextrin, H2O/Kleptose HPB (60/40), 25° C.
[10] = aqueous with cosolvent or surfactant or cyclodextrin, H2O/Vitamin E TPGS (90/10), 25° C.
[11] = aqueous with cosolvent or surfactant or cyclodextrin, H2O/polysorbate 80 (80/20), 25° C.
[12] = oil or lipid, Miglyol 812, 25° C.
[13] = organic solvent or mixture, PEG 400, 25° C.
[14] = water (pH 2), aqueous buffer, H2O (pH = 2), 25° C.
[15] = water (pH 7), aqueous buffer, H2O (pH = 7), 25° C.
[16] = water (pH 10), aqueous buffer, H2O (pH = 10), 25° C.

| SMILES | weight percentage that remained in solution ([1]; H2O (pH = 2), 4 hours) [% w/w] | weight percentage that remained in solution ([1]; H2O (pH = 2), 1 day) [% w/w] | weight percentage that remained in solution ([1]; H2O (pH = 2), 2 days) [% w/w] | weight percentage that remained in solution ([1]; H2O (pH = 2), 7 days) [% w/w] | weight percentage that remained in solution ([1]; H2O (pH = 2), 14 days) [% w/w] | weight percentage that remained in solution ([1]; H2O (pH = 7), 4 hours) [% w/w] | weight percentage that remained in solution ([1]; H2O (pH = 7), 1 day) [% w/w] | weight percentage that remained in solution ([1]; H2O (pH = 7), 2 days) [% w/w] | weight percentage that remained in solution ([1]; H2O (pH = 7), 7 days) [% w/w] | weight percentage that remained in solution ([1]; H2O (pH = 7), 14 days) [% w/w] | weight percentage that remained in solution ([1]; H2O (pH = 10), 4 hours) [% w/w] | weight percentage that remained in solution ([1]; H2O (pH = 10), 1 day) [% w/w] | weight percentage that remained in solution ([1]; H2O (pH = 10), 2 days) [% w/w] | weight percentage that remained in solution ([1]; H2O (pH = 10), 7 days) [% w/w] | weight percentage that remained in solution ([1]; H2O (pH = 10), 14 days) [% w/w] | weight percentage that remained in solution [1, 3] [% w/w] | weight percentage that remained in solution [1, 4] [% w/w] | weight percentage that remained in solution [1, 5] [% w/w] | weight percentage that remained in solution [1, 6] [% w/w] | weight percentage that remained in solution [1, 7] [% w/w] | other results |
| --- | --- | --- | --- | --- | --- | --- | --- | --- | --- | --- | --- | --- | --- | --- | --- | --- | --- | --- | --- | --- | --- |
| C[N+](C)(C)CCOP(=O)([O-])OC(Cn1cncn1)(Cn1cncn1)c1ccc(F)cc1F [Example 1, 2-(2,4-difluorophenyl)-1,3-di(1H-1,2,4-triazol-1-yl)propan-2-yl 2-(trimethylammonio)-ethyl phosphate] | 99.9 | 100.0 | 99.4 | 99.4 | 99.2 | 99.6 | 99.6 | 54.7 | 99.6 | 99.6 | 99.8 | 100.0 | 99.7 | 100.0 | 100.0 | 99.3 | 98.8 | 98.8 | 98.6 | 99.1 | weight percentage that remained in solution ([1]; PEG 400, 4 hours): 99.8 % w/w; weight percentage that remained in solution ([1]; PEG 400, 1 day): 100.0 % w/w; weight percentage that remained in solution ([1]; PEG 400, 2 days): 99.8 % w/w; weight percentage that remained in solution ([1]; PEG 400, 7 days): 99.9 % w/w; weight percentage that remained in solution ([1]; PEG 400, 14 days): 100.0 % w/w; solubility at 24 h [2, 8]: > 10000 µg/mL; solubility at 24 h [2, 9]: 4200 µg/mL; solubility at 24 h [2, 10]: 7400 µg/mL; solubility at 24 h [2, 11]: 8300 µg/mL; solubility at 24 h [2, 12]: 400 µg/mL; solubility at 24 h [2, 13]: > 10000 µg/mL; solubility at 24 h [2, 14]: > 10000 µg/mL; solubility at 24 h [2, 15]: 6800 µg/mL; solubility at 24 h [2, 16]: 7500 µg/mL |
| CCCCCCCCCC(=O)OCCOP(=O)([O-])OC(Cn1cncn1)(Cn1cncn1)c1ccc(F)cc1F.[Na+] [Example 2, sodium 2-(decanoyloxy)ethyl 2-(2,4-difluorophenyl)-1,3-di(1H-1,2,4-triazol-1-yl)propan-2-yl phosphate] | 97.8 | 97.7 | 96.8 | 96.7 | 100.0 | 97.8 | 97.7 | 98.0 | 97.8 | 97.9 | 94.6 | 98.0 | 96.8 | 96.8 | 99.2 | 98.0 | 98.0 | 98.2 | 97.7 | 98.0 | weight percentage that remained in solution ([1]; PEG 400, 4 hours): 97.7 % w/w; weight percentage that remained in solution ([1]; PEG 400, 1 day): 97.9 % w/w; weight percentage that remained in solution ([1]; PEG 400, 2 days): 98.1 % w/w; weight percentage that remained in solution ([1]; PEG 400, 7 days): 98.0 % w/w; weight percentage that remained in solution ([1]; PEG 400, 14 days): 98.7 % w/w; solubility at 24 h [2, 8]: > 10000 µg/mL; solubility at 24 h [2, 9]: > 10000 µg/mL; solubility at 24 h [2, 10]: > 10000 µg/mL; solubility at 24 h [2, 11]: > 10000 µg/mL; solubility at 24 h [2, 12]: 5000 µg/mL; solubility at 24 h [2, 13]: > 10000 µg/mL; solubility at 24 h [2, 14]: 6900 µg/mL; solubility at 24 h [2, 15]: > 10000 µg/mL; solubility at 24 h [2, 16]: > 10000 µg/mL |
| CCCCCCCCCOCCOP(=O)([O-])OC(Cn1cncn1)(Cn1cncn1)c1ccc(F)cc1F.[Na+] [Example 3, sodium 2-(2,4-difluorophenyl)-1,3-di(1H-1,2,4-triazol-1-yl)propan-2-yl 2-(nonyloxy)ethyl phosphate] | 94.8 | 94.6 | 95.0 | 95.0 | 95.0 | 94.8 | 94.7 | 95.0 | 94.8 | 95.1 | 94.8 | 94.8 | 95.0 | 95.0 | 95.2 | 95.0 | 94.9 | 94.7 | 95.0 | 95.2 | weight percentage that remained in solution ([1]; PEG 400, 4 hours): 95.0 % w/w; weight percentage that remained in solution ([1]; PEG 400, 1 day): 94.9 % w/w; weight percentage that remained in solution ([1]; PEG 400, 2 days): 95.0 % w/w; weight percentage that remained in solution ([1]; PEG 400, 7 days): 95.0 % w/w; weight percentage that remained in solution ([1]; PEG 400, 14 days): 95.1 % w/w; solubility at 24 h [2, 8]: > 10000 µg/mL; solubility at 24 h [2, 9]: > 10000 µg/mL; solubility at 24 h [2, 10]: > 10000 µg/mL; solubility at 24 h [2, 11]: > 10000 µg/mL; solubility at 24 h [2, 12]: 2600 µg/mL; solubility at 24 h [2, 13]: > 10000 µg/mL; solubility at 24 h [2, 14]: > 10000 µg/mL; solubility at 24 h [2, 15]: > 10000 µg/mL; solubility at 24 h [2, 16]: > 10000 µg/mL |
